How the values were obtained:
βA1-42 peptide [1] = target: T1, βA1-42 peptide (Homo sapiens, UniProt P05067); assay: βA1-42 polymerization, Thioflavina T binding assay in 96 well plates; type: biochemical; details: concentrations between 0.8 and 100 μM, overnight at 37° C.; read-out: DE50 (the source's name)
T1 construct: βA1-42 peptide (1 mg/ml) was dissolved in H2O/CH3CN (1:1)
Procedure: The ST1641, ST1722, ST1859, ST1745, ST1800, ST1913 capability to counteract βA1-42 polymerization was evaluated using the Thioflavina “T” binding assay with the following procedure (M. A. Findeis, S. M. Molineaux; Methods in Enzymology 309, 487-488 (1999)): βA1-42 peptide (1 mg/ml) was dissolved in H2O/CH3CN (1:1), lyophilized, solubilized in DMSO+PBS and incubated at 37° C. for 8 days. The peptide was then sonicated and dissolved in PBS (1:5). 96 well plates were prepared with a solution of βA1-42 (40 μl/well) and ST testing compounds (50 μl/well, at concentrations between 0.8 and 100 μM). 50 μl of not aggregated βA1-42 was added after 15 minutes to each well and the plates were incubated overnight at 37° C. with agitation. 200 μl of a reaction mixture containing Thioflavina “T” (10 μM) and Na2HPO4×2H2O (50 μM) solution (pH 6.5) was then added to each well. The fluorescence was measured at 450 nm of excitation and 482 nm of emission with a 96 well fluorimetric plate reader within 60 seconds. At this experimental conditions fluorimetric measures were related to the amount of βA1-42 polymerized peptide.

[2] = target: T2, previously aggregated βA1-42 peptide (Homo sapiens, UniProt P05067); assay: Dissolution of aggregates of preformed β-amyloid1-42 in fibril form, thioflavin T binding; type: biochemical; details: peptide:pamoate ratio 1:8
T2 construct: βA1-42 peptide (cat. Bachem n° H-1368.0500) at a concentration of 0.22 mM; purchased Bachem H-1368.0500
T2 sequence (P05067 672-713): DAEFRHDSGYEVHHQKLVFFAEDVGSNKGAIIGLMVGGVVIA
Procedure: This experiment was conducted in order to assess the antiaggregant capacity of sodium pamoate on previously aggregated βA1-42 peptide, according to the following procedure. βA1-42 peptide was left to aggregate for 48 hours at 37° C. in the conditions described in Example 6. Sodium pamoate was added (peptide:pamoate ratio 1:8).

cerebellar granules = assay: Apoptosis of cerebellar granules induced by K+ deprivation; type: cell-based, rat; details: concentration of 10 μM
Procedure: Granules isolated from cerebellum of 8-day-old rats are differentiated biochemically and morphologically in approximately one week, becoming morphologically mature and with a glutamatergic interneuron phenotype (Gallo et al. 1982 PNAS 79:7919-7923). On depriving the culture medium of serum and reducing the extracellular concentration of potassium ions (25 mM) to the extent of bringing it down to a non-depolarising condition (5 mM), cell death by apoptosis is obtained in approximately 24 hours.
This experimental model made it possible to obtain a “self-fuelling” βA production system where neuronal apoptosis of the cerebellar granules brought about changes in the processing of the amyloid precursor APP, of such a nature as to favour the course of amyloidogenic metabolism. The increase in βA levels, in turn, favours programmed cell death. In this experimental setting, the potential efficacy of the study substances was measured in terms of cell survival at given times (24, 48 and 72 hours) after the reduction of KCl in the medium.
In primary cultures of cerebellar granules of 8-day-old rats, maintained in a culture medium containing KCl 25 mM, the cells were labelled with ^35S-methionine after 6 days in culture. […]
The protection against toxicity was assessed in terms of cell viability at 24, 48 and 72 hours.

[3] = system: primary cortical neuronal cultures; assay: Inhibition of neurotoxicity induced by β-amyloid25-35 in primary neuronal cultures; type: cell-based, rat
Procedure: To verify the potential neuroprotective activity of sodium pamoate, primary cortical neuronal cultures obtained by microdissection of rat foetal brain at day 16-18 of gestation were used. The cerebral tissue was cultivated in the presence of foetal calf serum and the glial proliferation was inhibited by adding to the incubation medium the antimitotic agent cytosine arabinoside on days 3 and 5 (Andreoni et al. 1997 Exp. Neurology 148:281-287). The cell cultures were exposed to βA25-35 peptide for 5-7 days in the presence or absence of sodium pamoate. The neuroprotective action was evaluated in conditions of neurotoxicity induced by kainic acid to verify the specificity of action of sodium pamoate and its effective antiaggregant activity against the neurotoxic agent. The ability of sodium pamoate to protect the cells against degeneration was also evaluated in neuronal cells cultured in the absence of foetal calf serum in the culture medium. In this case, 24 hours after seeding, the medium was replaced with one without serum containing glutamine, insulin, transferrin, putrescin, progesterone, sodium selenite and Hepes.
Primary cultures of neurons of the […] were taken from the rat foetal brain on days 16-18 of gestation and cultured in foetal calf serum. On incubation days 3 and 5, glial proliferation was inhibited using cytosine arabinoside as an antimitotic agent.
The cultures were exposed to βA25-35 peptide at concentrations of 25 and 50 μM from the day following seeding for 5 to 7 days.
βA25-35 peptide was added to the cultures together with sodium pamoate which had equimolar concentrations or concentrations lower than those of the peptide itself.
The protection against neurotoxicity was evaluated using the colorimetric method and densitometric analysis with an image analyser.

βA1-42 peptide [4] = target: T1, βA1-42 peptide; assay: Resistance of β-amyloid1-42 peptide to trypsin digestion, HPLC; type: biochemical
Procedure: βA1-42 peptide was dissolved with 15 μl of NaOH 0.1 M. The solution was brought to pH 7.4 with 15 μl of TRIS buffer 100 mM to which were added 30 μl of buffer alone or 30 μl of buffer solution containing sodium pamoate. The final concentration of βA1-42 peptide was 0.22 mM, and that of sodium pamoate ranged from 0.055 to 1.76 mM, thus with a βA1-42 peptide:sodium pamoate ratio ranging from 4:1 to 1:8. The samples thus prepared were incubated at 37° C. for 5 days; in these conditions βA1-42 peptide formed aggregates in the form of fibrils modifying its structure from random-coil to β-sheet (Zagorski M. G. et al. 1999 “Methodological and Chemical Factors Affecting Amyloid β Peptide Amyloidogenicity” Methods in Enzymology 309:189-204). After 5 days' incubation, 24 μg of trypsin (Merck) were added to each sample, stirred and centrifuged for 1 minute at 13000 rpm; the samples were then left to incubate at 37° C. for 1 hour. When this period had elapsed, the mixture was centrifuged for 5 minutes at 13000 rpm, eliminating 50 μl of supernatant, and the precipitate was dissolved with 40 μl of HCOOH and 10 μl of H2O containing 0.1% of trifluoroacetic acid (TFA). At this point the sample was ready for quantitative HPLC analysis. The HPLC profile of the sample incubated with sodium pamoate was compared with that obtained with peptide alone, thereby quantifying the βA1-42 peptide.

βA1-42 peptide [5] = target: T1, βA1-42 peptide; assay: Antiaggregant effect on β-amyloid1-42 peptide, thioflavin T binding, 5 days incubation; type: biochemical
Procedure: The antiaggregant effects of sodium pamoate on βA1-42 peptide were evaluated by measuring thioflavin T binding according to the following procedure. βA1-42 peptide (cat. Bachem n° H-1368.0500) at a concentration of 0.22 mM was incubated at 37° C. in Tris buffer 100 mM pH 7.4, alone or in the presence of sodium pamoate, for 5 days. The molar ratios of the peptide to sodium pamoate were generally 1:8, 1:4 and 1:2. The solution was centrifuged at 13000 rpm for 5 minutes and the supernatant was eliminated. The precipitate was washed with 500 μl of H2O and centrifuged at 13000 rpm for 5 minutes. In the precipitate, the aggregate in fibril form was detected with 600 μl of thioflavin T (ThT) 2 μM dissolved in glycine-NaOH buffer 50 mM, pH 9.4. After 5 minutes' incubation 500 μl of samples were transferred to a quartz cuvette and the fluorimetric signal was determined at 420 nm excitation and 480 nm emission in a spectrophotofluorimeter. In these conditions the fluorimetric signal is proportional to the amount of amyloid aggregate (Le Vine, Methods in Enzymology, vol. 309 pp 274-284).

β-amyloid25-35 peptide = target: T3, β-amyloid25-35 peptide (Homo sapiens, UniProt P05067); assay: Antiaggregant effect on β-amyloid25-35 peptide (centrifugation, settled solid); type: biochemical; details: sodium pamoate 1 mM, βA25-35 1 mM, phosphate buffer 100 mM pH 5, 24 hours ambient temperature
T3 construct: aqueous solution of βA25-35 2 mM (cat. Bachem n° H-1192.0001); purchased Bachem H-1192.0001
Procedure: To 250 μl of a solution consisting of sodium pamoate 2 mM and phosphate buffer 200 mM pH 5 were added 250 μl of an aqueous solution of βA25-35 2 mM (cat. Bachem n° H-1192.0001). 500 μl of a solution of sodium pamoate 1 mM, βA25-35 1 mM and phosphate buffer 100 mM pH 5 were thus obtained. The same process was carried out for the control sample where sodium pamoate was not present. After 24 hours at ambient temperature, the sample and control were centrifuged at 12000 rpm for 20 minutes, separating the settled solids from the supernatants. To the settled solids were added 250 μL of water. After 3 hours at ambient temperature the samples were centrifuged again at a 12000 rpm for 20 minutes.

[6] = Capability to cross in vivo the blood brain barrier, 14C-labelled compound; parameters: species or system rats; details: i.v.
Procedure: ST1859 inhibited “in vitro” the beta amyloid aggregation and to test its permeability through the intact blood-brain barrier, ST1859, labelled with ^14C(S. A. 50 μCi/mM), was injected i.v. into normal rats at the dose of 18 μCi/rat. The brain and blood were up-taken 30′ after the injection, the blood was then centrifuged (3000 RPM×15 min) and serum obtained was diluted 1:20 with water while brain tissue was homogenized 1:20 w/v in water. To each sample was then added 4 ml of scintillation liquid for aqueous samples The amount of radioactivity was counted with an automatic β-counter (Packard 4600). Data reported in DPM (table 1) were normalized vs. weight or volume of each sample.

[7] = 18 μCi/rat, 30′ after the injection, mean

T1 sequence (P05067 672-713): as above

**Q.** For `O=C(O)c1cc2ccccc2c(Cc2c([O-])c(C(=O)O)cc3ccccc23)c1[O-].[Na+].[Na+]` [ST1641, sodium pamoate], which EC50 (βA1-42 peptide [1]) is on record?
**A.** Its EC50 is 38.2 µM.

**Q.** What about the “activity in reducing thioflavin T binding” value ([2]; preformed aggregates) of the same molecule?
**A.** The value was “extremely active”.

**Q.** What about the “reduction in fluorescence as compared to controls” value ([2]; βA1-42 aggregated 48 hours at 37° C.) of the same molecule?
**A.** Its value is 70%.

**Q.** What about the “protection against the damage induced by amyloid forming during the apoptotic process” value (cerebellar granules) of the same molecule?
**A.** Its value is 89%.

**Q.** And the “protection against the toxicity induced by βA25-35” value [3]?
**A.** Its value is “complete protection”.

**Q.** And the percentage survival ([3]; Sodium pamoate 25 μM + βA25-35 50 μM)?
**A.** Its percentage survival is 100 % S.

**Q.** What about the percentage survival ([3]; Sodium pamoate 25 μM alone) of the same molecule?
**A.** The percentage survival was 88 % S.

**Q.** And the “increase of trypsin hydrolysis of βA1-42” value (βA1-42 peptide [4]; highest dose, peptide:pamoate ratio 1:8)?
**A.** Its value is “more than 50%”.

**Q.** What about the “increase of trypsin hydrolysis of βA1-42” value (βA1-42 peptide [4]; lowest dose, peptide:pamoate ratio 1:4) of the same molecule?
**A.** The value was “more than 40%”.

**Q.** And the “efficacy in reducing thioflavin T binding as a function of incubation time” value (βA1-42 peptide [5]; from 1 to 5 days' incubation)?
**A.** The value was “progressive increase in efficacy”.

**Q.** What about the “reduction in the formation of βA1-42 aggregates in the form of fibrils as compared to controls” value (βA1-42 peptide [5]; βA1-42 0.22 mM, 37° C., 5 days, peptide:pamoate 1:8, 1:4, 1:2, dose-dependent) of the same molecule?
**A.** The value was no more than 70%.

**Q.** What about the “inhibition of aggregation of βA25-35 peptide in fibrils” value (β-amyloid25-35 peptide) of the same molecule?
**A.** The value was “complete inhibition”.

**Q.** For `CC(=O)O[C@H](CC(=O)Oc1c(C(=O)O)cc2ccccc2c1Cc1c(O)c(C(=O)O)cc2ccccc12)C[N+](C)(C)C` [ST1722, (2R)-2-(acetyloxy)-4-({3-carboxy-1-[(3-carboxy-2-hydroxy-1-naphthyl)methyl]-2-naphthyl}oxy)-N,N,N-trimethyl-4-oxo-1-butanaminium chloride], which EC50 (βA1-42 peptide [1]) is on record?
**A.** Its EC50 is 90.3 µM.

**Q.** For `CC(=O)O[C@H](CC(=O)Oc1ccc2ccccc2c1Cc1c(O)ccc2ccccc12)C[N+](C)(C)C` [ST1745, (2R)-2-(acetyloxy)-4-({1-[(2-hydroxy-1-naphthyl)methyl]-2-naphthyl}oxy)-N,N,N-trimethyl-4-oxo-1-butanaminium chloride], which EC50 (βA1-42 peptide [1]) is on record?
**A.** The EC50 was 8 µM.

**Q.** With `CCN(CC)CCOC(=O)c1cc2ccccc2c(Cc2c(O)c(C(=O)OCCN(CC)CC)cc3ccccc23)c1O` [ST1800, 2-({4-[(3-{[2-(diethylammonio)ethoxy]carbonyl}-2-hydroxy-1-naphthyl)methyl]-3-hydroxy-2-naphthoyl}oxy)-N,N-diethylethanaminium dichloride] as the molecule, how does the EC50 (βA1-42 peptide [1]) read?
**A.** The EC50 was greater than 50 µM.

**Q.** What does the source list for `Oc1ccc2ccccc2c1Cc1c(O)ccc2ccccc12` [ST1859, 1,1′-methylene-di(2-naphthol)]?
**A.** EC50 (βA1-42 peptide [1]): 5.4 µM; Brain radioactivity [6, 7]: 35.643 DPM/g; Serum radioactivity [6, 7]: 29.776 DPM/ml; Serum/Brain [6, 7]: 0.833; ability to cross the blood brain barrier ([6]; normal rats): able to cross the blood brain barrier

**Q.** For `NCC(=O)Oc1ccc2ccccc2c1Cc1c(O)ccc2ccccc12` [ST1913, 2-({1-[(2-hydroxy-1-naphthyl)methyl]-2-naphthyl}oxy)-2-oxoethanaminium chloride], which EC50 (βA1-42 peptide [1]) is on record?
**A.** The EC50 was 7.8 µM.

**Q.** With “βA25-35: β-amyloid25-35 peptide (cat. Bachem n° H-1192.0001), used as neurotoxic agent (GSNKGAIIGLM; Amyloid-beta protein 42; UniProt P05067 696-706, looked up, fragment) [reference compound]” as the molecule, how does the percentage survival ([3]; βA25-35 50 μM alone) read?
**A.** Its percentage survival is 16 % S.
